US9156836B2, “Tricyclic triazole compounds that modulate HSP90 activity” (Synta Pharmaceuticals Corp., priority 2008, dated 2015)

tested on: Her2; test: Degradation of Her2 in BT-474 cells, Western blot (Method 1); format: cell-based, human; settings: 0.5 μM, overnight
Protocol: Human high-Her2 breast carcinoma BT474 (HTB-20), SK-BR-3 (HTB-30) and MCF-7 breast carcinoma (HTB-22) from American Type Culture Collection, VA, USA were grown in Dulbecco's modified Eagle's medium with 4 mM L-glutamine and antibiotics (100 IU/ml penicillin and 100 ug/ml streptomycine;GibcoBRL). To obtain exponential cell growth, cells were trypsinized, counted and seeded at a cell density of 0.5×10^6 cells/ml regularly, every 3 days. All experiments were performed on day 1 after cell passage.
BT-474 cells are treated with 0.5 μM, 2 μM, or 5 μM of 17AAG (a positive control) or 0.5 μM, 2 μM, or 5 μM of a compound of the invention overnight in DMEM medium. After treatment, each cytoplasmic sample is prepared from 1×10^6 cells by incubation of cell lysis buffer (#9803, cell Signaling Technology) on ice for 10 minutes. The resulting supernatant used as the cytosol fractions is dissolved with sample buffer for SDS-PAGE and run on a SDS-PAGE gel, blotted onto a nitrocellulose membrane by using semi-dry transfer. Non-specific binding to nitrocellulose is blocked with 5% skim milk in TBS with 0.5% Tween at room temperature for 1 hour, then probed with anti-Her2/ErB2 mAb (rabbit IgG, #2242, Cell Signaling) and anti-Tubulin (T9026, Sigma) as housekeeping control protein. […]

Compound | Degradation of Her2
C=CCNC1=C2C[C@@H](C)C[C@H](OC)[C@H](O)[C@@H](C)/C=C(\C)[C@H](OC(N)=O)[C@@H](OC)/C=C\C=C(/C)C(=O)NC(=CC1=O)C2=O [Compound 17AAG, 17-allylamino-17-demethoxygeldanamycin] | partial degradation

tested on: Hsp90; test: IC50 of compounds of the invention (Table 2; Her2 degradation Method 2, MV-4-11 cell survival, Cell Counting Kit-8); format: cell-based, human; settings: text calls it IC50 for Her2 degradation; Method 2: MV-4-11 cells, 72 hours; read-out: IC50 of compounds of the invention for inhibition of Hsp90
Protocol: MV-4-11 cells (20,000 cells/well) were cultured in 96-well plates and maintained at 37° C. for several hours. The cells were treated with a compound of the invention or 17AAG (a positive control) at various concentrations and incubated at 37° C. for 72 hours. Cell survival was measured with Cell Counting Kit-8 (Dojindo Laboratories, Cat. # CK04).

Compound | IC50 [µM]
NC(=O)c1nnc2n1CCCCc1cc(O)cc(O)c1-2 [Compound 2, 10,12-dihydroxy-5,6,7,8-tetrahydrobenzo[c][1,2,4]triazolo[4,3-a]azocine-3-carboxamide] | 12.2
NC(=O)c1nnc2n1C/C=C\Cc1cc(O)cc(O)c1-2 [Compound 3, (Z)-10,12-dihydroxy-5,8-dihydrobenzo[c][1,2,4]triazolo[4,3-a]azocine-3-carboxamide] | 17
NC(=O)c1nnc2n1CC(O)C(O)Cc1cc(O)cc(O)c1-2 (stereo not drawn) [Compound 4, 6,7,10,12-tetrahydroxy-5,6,7,8-tetrahydrobenzo[c][1,2,4]triazolo[4,3-a]azocine-3-carboxamide] | 24.3
NC(=O)c1nnc2n1CC(Br)C(Br)Cc1cc(O)cc(O)c1-2 (stereo not drawn) [Compound 5, 6,7-dibromo-10,12-dihydroxy-5,6,7,8-tetrahydrobenzo[c][1,2,4]triazolo[4,3-a]azocine-3-carboxamide compound with dibromine (1:1)] | 23.4
NC(=O)c1nnc2n1CCCc1cc(O)cc(O)c1-2 [Compound 12, 9,11-dihydroxy-6,7-dihydro-5H-benzo[c][1,2,4]triazolo[4,3-a]azepine-3-carboxamide] | 87.2
